In US8247211B2, “Glycopeptide antibiotics” (American Cyanamid Company, priority 2001, dated 2012):
≈ marks a conversion by molar mass, not a printed value.

Experiments:
Test in all cases: In vitro antibacterial evaluation: minimum inhibitory concentration (MIC), broth dilution method
Assay type in all cases: cell-based
Enterococcus sp. = system: Enterococcus sp.
Procedure, shortened: (§1)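 Susceptibility determined by NCCLS-recommended broth dilution (M7-A2), Muller-Hinton II […]. Concentration span 64-0.06 μg/mL, inoculum 5×10^5 CFU/mL. Isolates include strains resistant to methicillin, penicillin and/or vancomycin.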

Escherichia coli = system: Escherichia coli
Procedure, shortened: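 Values are minimum inhibitory concentrations, meaning the smallest antibiotic concentration that stops growth of the organism. They come from broth dilution in Muller-Hinton II […] per NCCLS guidance (M7-A2), using 5×10^5 CFU/mL and concentrations from 64 to 0.06 μg/mL.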

Staphylococcus sp. = conditions: broth dilution, 18 hours at 35° C.
Procedure, shortened: as §1

Streptococcus sp. = system: Streptococcus sp.
Procedure, shortened: as §1

[1] = broth dilution, inoculum 5×10^5 CFU/mL, 18 hours at 35° C.

MIC Enterococcus avium (GC 4558) (Enterococcus sp.; [1]): >64 µg/mL
MIC Enterococcus faecalis (ATCC 29212) (Enterococcus sp.; [1]): >64 µg/mL
MIC Enterococcus faecalis (GC 2242) (Enterococcus sp.; [1]): >64 µg/mL
MIC Enterococcus faecalis (GC 2691) (Enterococcus sp.; [1]): >64 µg/mL
MIC Enterococcus faecalis (GC 3059) (Enterococcus sp.; [1]): >64 µg/mL
MIC Enterococcus faecalis (GC 4552) (Enterococcus sp.; [1]): >64 µg/mL
MIC Enterococcus faecalis (GC 4553) (Enterococcus sp.; [1]): >64 µg/mL
MIC Enterococcus faecalis (GC 4554) (Enterococcus sp.; [1]): >64 µg/mL
MIC Enterococcus faecalis (GC 6189) (Enterococcus sp.; [1]): >64 µg/mL
MIC Enterococcus faecium (GC 2243) (Enterococcus sp.; [1]): >64 µg/mL
MIC Enterococcus faecium (GC 4556) (Enterococcus sp.; [1]): >64 µg/mL
MIC Enterococcus faecium (GC 4557) (Enterococcus sp.; [1]): 32 µg/mL (≈ 21.7 µM)
MIC Enterococcus faecalis (ATCC 29212) (Enterococcus sp.; strain ATCC 29212): >64 µg/mL
MIC Enterococcus faecalis (GC 2242) (Enterococcus sp.; strain GC 2242): >64 µg/mL
MIC Enterococcus faecium (GC 2243) (Enterococcus sp.; strain GC 2243): >64 µg/mL
MIC Enterococcus faecalis (GC 2691) (Enterococcus sp.; strain GC 2691): >64 µg/mL
MIC Enterococcus faecalis (GC 3059) (Enterococcus sp.; strain GC 3059): >64 µg/mL
MIC Enterococcus faecalis (GC 4552) (Enterococcus sp.; strain GC 4552): >64 µg/mL
MIC Enterococcus faecalis (GC 4553) (Enterococcus sp.; strain GC 4553): >64 µg/mL
MIC Enterococcus faecalis (GC 4554) (Enterococcus sp.; strain GC 4554): >64 µg/mL
MIC Enterococcus faecium (GC 4556) (Enterococcus sp.; strain GC 4556): >64 µg/mL
MIC Enterococcus faecium (GC 4557) (Enterococcus sp.; strain GC 4557): 32 µg/mL (≈ 21.7 µM)
MIC Enterococcus avium (GC 4558) (Enterococcus sp.; strain GC 4558): >64 µg/mL
MIC Enterococcus faecalis (GC 6189) (Enterococcus sp.; strain GC 6189): >64 µg/mL
MIC Escherichia coli (ATCC 25922) (Escherichia coli; strain ATCC 25922): >64 µg/mL
MIC Escherichia coli (GC 4559) (Escherichia coli; strain GC 4559): >64 µg/mL
MIC Escherichi coli (GC 4560) (Escherichia coli; strain GC 4560): 8 µg/mL (≈ 5.43 µM)
MIC Coagulase Negative Staphylococcus (GC 4547) (Staphylococcus sp.; 5×10^5 CFU/mL): 32 µg/mL (≈ 21.7 µM)
MIC Coagulase Negative Staphylococcus (GC 4548) (Staphylococcus sp.; 5×10^5 CFU/mL): 32 µg/mL (≈ 21.7 µM)
MIC Coagulase Negative Staphylococcus (GC 4549) (Staphylococcus sp.; 5×10^5 CFU/mL): 16 µg/mL (≈ 10.9 µM)
MIC Coagulase Negative Staphylococcus (GC 4551) (Staphylococcus sp.; 5×10^5 CFU/mL): >64 µg/mL
MIC Coagulase Negative Staphylococcus (GC 6257) (Staphylococcus sp.; 5×10^5 CFU/mL): 8 µg/mL (≈ 5.43 µM)
MIC Staphylococcus aureus (ATCC 29213) (Staphylococcus sp.; 5×10^5 CFU/mL): 32 µg/mL (≈ 21.7 µM)
MIC Staphylococcus aureus (GC 1131) (Staphylococcus sp.; 5×10^5 CFU/mL): 32 µg/mL (≈ 21.7 µM)
MIC Staphylococcus aureus (GC 3051) (Staphylococcus sp.; 5×10^5 CFU/mL): 32 µg/mL (≈ 21.7 µM)
MIC Staphylococcus aureus (GC 3053) (Staphylococcus sp.; 5×10^5 CFU/mL): >64 µg/mL
MIC Staphylococcus aureus (GC 4541) (Staphylococcus sp.; 5×10^5 CFU/mL): 32 µg/mL (≈ 21.7 µM)
MIC Staphylococcus aureus (GC 4542) (Staphylococcus sp.; 5×10^5 CFU/mL): 32 µg/mL (≈ 21.7 µM)
MIC Staphylococcus aureus (GC 4544) (Staphylococcus sp.; 5×10^5 CFU/mL): 32 µg/mL (≈ 21.7 µM)
MIC Staphylococcus aureus (GC 4545) (Staphylococcus sp.; 5×10^5 CFU/mL): 32 µg/mL (≈ 21.7 µM)
MIC Staphylococcus aureus-SMITH (GC 4543) (Staphylococcus sp.; 5×10^5 CFU/mL): 32 µg/mL (≈ 21.7 µM)
MIC Staphylococcus aureus (ATCC 29213) (Staphylococcus sp.; strain ATCC 29213): 32 µg/mL (≈ 21.7 µM)
MIC Staphylococcus aureus (GC 1131) (Staphylococcus sp.; strain GC 1131): 32 µg/mL (≈ 21.7 µM)
MIC Staphylococcus aureus (GC 3051) (Staphylococcus sp.; strain GC 3051): 32 µg/mL (≈ 21.7 µM)
MIC Staphylococcus aureus (GC 3053) (Staphylococcus sp.; strain GC 3053): >64 µg/mL
MIC Staphylococcus aureus (GC 4541) (Staphylococcus sp.; strain GC 4541): 32 µg/mL (≈ 21.7 µM)
MIC Staphylococcus aureus (GC 4542) (Staphylococcus sp.; strain GC 4542): 32 µg/mL (≈ 21.7 µM)
MIC Staphylococcus aureus (GC 4544) (Staphylococcus sp.; strain GC 4544): 32 µg/mL (≈ 21.7 µM)
MIC Staphylococcus aureus (GC 4545) (Staphylococcus sp.; strain GC 4545): 32 µg/mL (≈ 21.7 µM)
MIC Streptococcus agalactiae (GC 4564) (Streptococcus sp.; [1]): 32 µg/mL (≈ 21.7 µM)
MIC Streptococcus pneumoniae (ATCC 6301) (Streptococcus sp.; [1]): 8 µg/mL (≈ 5.43 µM)
MIC Streptococcus pneumoniae (GC 1894) (Streptococcus sp.; [1]): 8 µg/mL (≈ 5.43 µM)
MIC Streptococcus pneumoniae (GC 4565) (Streptococcus sp.; [1]): 8 µg/mL (≈ 5.43 µM)
MIC Streptococcus pyogenes (GC 4563) (Streptococcus sp.; [1]): 16 µg/mL (≈ 10.9 µM)
MIC Streptococcus pneumoniae (ATCC 6301) (Streptococcus sp.; strain ATCC 6301): 8 µg/mL (≈ 5.43 µM)
MIC Streptococcus pneumoniae (GC 1894) (Streptococcus sp.; strain GC 1894): 8 µg/mL (≈ 5.43 µM)
MIC Streptococcus pyogenes (GC 4563) (Streptococcus sp.; strain GC 4563): 16 µg/mL (≈ 10.9 µM)
MIC Streptococcus agalactiae (GC 4564) (Streptococcus sp.; strain GC 4564): 32 µg/mL (≈ 21.7 µM)
MIC Streptococcus pneumoniae (GC 4565) (Streptococcus sp.; strain GC 4565): 8 µg/mL (≈ 5.43 µM)
Compound: COc1cc(C2OCC3OC(OC4C(CO)OC(Oc5ccc(CC6NC(=O)C(C(C)c7ccccc7)NC(=O)CNC(=O)C(CO)NC(=O)C(C(O)C7CNC(=N)N7C7OC(CO)C(O)C(O)C7O)NC(=O)C(C(O)C7CNC(=N)N7)NC6=O)cc5)C(O)C4O)C(O)C(O)C3O2)cc([N+](=O)[O-])c1O (stereo not drawn) [Example 169, Cyclo[glycyl-β-methylphenylalanyl-O-[4-O-[4,6-O-(4-hydroxy-3-methoxy-4-nitro-benzylidene)hexopyranosyl]hexopyranosyl]tyrosyl-3-(2-iminoimidazolidin-4-yl)seryl-3-(3-hexopyranosyl-2-iminoimidazolidin-4-yl)serylseryl]]
MIC Staphylococcus haemolyticus (GC 4546) (Staphylococcus sp.; 5×10^5 CFU/mL): 32 µg/mL (≈ 21.7 µM)
